Assay results reported in the supplement of paper PMC11061612.

Tests used:
Experiment in all cases: combination Emax (second highest fraction inhibited in the dose matrix, 72 h); higher = more inhibition; extreme values may be limits of the assay
[1] = system: SU-DHL-6 (B-Cell Non-Hodgkin's Lymphoma)
Summary of the method: (§1)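 Bliss excess equals the observed combination effect minus the expected value EA + EB − EA·EB, where EA and EB are the effects of each agent alone. Combination Emax is the second-highest inhibition within the matrix. Inhibition was scaled from CellTiter-Glo 2.0 luminescence, with 0 set by vehicle wells and 1 by blank wells, after 72 hours of two-drug dosing of cells plated in 1536-well plates.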

[2] = system: SK-OV-3 (Ovarian Carcinoma)
Summary of the method: as §1

[3] = system: RT-112 (Bladder Carcinoma)
Summary of the method: as §1

[4] = system: OC-314 (Ovarian Carcinoma)
Summary of the method: as §1

[5] = system: HARA (Squamous Cell Lung Carcinoma)
Summary of the method: as §1

[6] = system: K5 (Thyroid Gland Carcinoma)
Summary of the method: as §1

[7] = system: Hs-633T (Other Solid Carcinomas)
Summary of the method: as §1

[8] = system: SW1271 (Small Cell Lung Carcinoma)
Summary of the method: as §1

[9] = system: HO-1-u-1 (Oral Cavity Carcinoma)
Summary of the method: as §1

[10] = system: SUP-T1 (T-Lymphoblastic Leukemia)
Summary of the method: as §1

NCI-H2461 (Mesothelioma) = system: NCI-H2461 (Mesothelioma)
Summary of the method: as §1

[11] = system: RKO (Colorectal Carcinoma)
Summary of the method: as §1

[12] = system: 8305C (Thyroid Gland Carcinoma)
Summary of the method: as §1

NCI-H28 (Mesothelioma) = system: NCI-H28 (Mesothelioma)
Summary of the method: as §1

[13] = system: NCI-H69 (Small Cell Lung Carcinoma)
Summary of the method: as §1

NB14 (Neuroblastoma) = system: NB14 (Neuroblastoma)
Summary of the method: as §1

NCI-H2795 (Mesothelioma) = system: NCI-H2795 (Mesothelioma)
Summary of the method: as §1

[14] = system: CAL-54 (Kidney Carcinoma)
Summary of the method: as §1

[15] = system: EN (Endometrial Carcinoma)
Summary of the method: as §1

[16] = system: PCI-30 (Head and Neck Carcinoma)
Summary of the method: as §1

Structure (SMILES) | combination Emax [1] | combination Emax [2] | combination Emax [3] | combination Emax [4] | combination Emax [5] | combination Emax [6] | combination Emax [7] | combination Emax [8] | combination Emax [9] | combination Emax [10] | combination Emax (NCI-H2461 (Mesothelioma)) | combination Emax [11] | combination Emax [12] | combination Emax (NCI-H28 (Mesothelioma)) | combination Emax [13] | combination Emax (NB14 (Neuroblastoma)) | combination Emax (NCI-H2795 (Mesothelioma)) | combination Emax [14] | combination Emax [15] | combination Emax [16]
Cc1cc2ncnn2cc1Nc1ncc2c(n1)n(C1CCOCC1)c(=O)n2C [AZD7648] + COc1cc([C@@H]2c3cc4c(cc3[C@@H](O[C@@H]3O[C@@H]5CO[C@@H](C)O[C@H]5[C@H](O)[C@H]3O)[C@H]3COC(=O)[C@H]23)OCO4)cc(OC)c1O [Etoposide] (first compound max 10 µM, 7x7, partner max 10 µM) | 0.991 | 0.399 | 0.798 | 0.978 | 0.627 | 0.64 | 0.842 | 0.475 | 0.866 | 0.85 | 0.553 | 0.829 | 0.465 | 0.425 | 0.67 | 0.912 | 0.686 | 0.731 | 0.481 | 0.553
C[C@@H](Oc1cc(-c2cnn(C3CCNCC3)c2)cnc1N)c1c(Cl)ccc(F)c1Cl [Crizotinib] + Cn1cnc2c(F)c(Nc3ccc(Br)cc3Cl)c(C(=O)NOCCO)cc21 [Selumetinib] (first compound max 10 µM, 7x7, partner max 10 µM) | 1 | 0.249 | 0.819 | 0.494 | 0.59 | 0.682 | 0.896 | 0.896 | 0.639 | 0.823 | 0.56 | 0.982 | 0.801 | 0.438 | 0.621 | 0.966 | 0.918 | 0.565 | 0.401 | 0.238
CN(CCO)CC[C@H](CSc1ccccc1)Nc1ccc(S(=O)(=O)NC(=O)c2ccc(N3CCC([C@@H](O)c4ccccc4-c4ccc(Cl)cc4)CC3)cc2)cc1S(=O)(=O)C(F)(F)F [AZD4320] + CS(=O)(=O)CCNCc1ccc(-c2ccc3ncnc(Nc4ccc(OCc5cccc(F)c5)c(Cl)c4)c3c2)o1 [Lapatinib] (first compound max 1 µM, 7x7, partner max 10 µM) | 0.997 | 0.869 | 0.351 | 0.729 | 0.906 | 0.355 | 0.452 | 0.484 | 0.983 | 0.866 | 0.512 | 0.477 | 0.677 | 0.826 | 0.997 | 0.993 | 0.71 | 0.951 | 0.229 | 0.369
N#Cc1cnc(Nc2cc(NC[C@H]3CNCCO3)c(C(F)(F)F)cn2)cn1 [SRA737] + CCc1c2c(nc3ccc(O)cc13)-c1cc3c(c(=O)n1C2)COC(=O)[C@]3(O)CC [SN-38] (first compound max 10 µM, 7x7, partner max 0.3 µM) | 1 | 0.542 | 0.95 | 0.994 | 0.898 | 0.512 | 0.831 | 0.608 | 0.924 | 0.796 | 0.638 | 0.925 | 0.615 | 0.516 | 0.82 | 0.981 | 0.769 | 0.793 | 0.678 | 0.843
O=C(c1cc(Cc2n[nH]c(=O)c3ccccc23)ccc1F)N1CCN(C(=O)C2CC2)CC1 [Olaparib] + CC1(C)CCC(CN2CCN(c3ccc(C(=O)NS(=O)(=O)c4ccc(NCC5CCOCC5)c([N+](=O)[O-])c4)c(Oc4cnc5[nH]ccc5c4)c3)CC2)=C(c2ccc(Cl)cc2)C1 [Venetoclax] (first compound max 10 µM, 7x7, partner max 1 µM) | 0.719 | 0.139 | 0.0956 | 0.188 | 0.137 | 0.156 | 0.186 | 0.201 | 0.117 | 0.479 | 0.203 | 0.191 | 0.232 | 0.118 | 0.614 | 0.465 | 0.284 | 0.177 | 0.29 | 0.173
C=CCn1c(=O)c2cnc(Nc3ccc(N4CCN(C)CC4)cc3)nc2n1-c1cccc(C(C)(C)O)n1 [AZD1775] + Nc1ccn([C@@H]2O[C@H](CO)[C@@H](O)C2(F)F)c(=O)n1 [Gemcitabine] (first compound max 1 µM, partner max 0.3 µM) | 0.958 | 0.583 | 0.956 | 0.972 | 0.912 | 0.568 | 0.863 | 0.617 | 0.693 | 0.862 | 0.63 | 0.882 | 0.574 | 0.685 | 0.611 | 1 | 0.785 | 0.787 | 0.581 | 0.677
C[C@@H](Nc1cc(F)cc(F)c1)c1cc(C(=O)N(C)C)cc2c(=O)cc(N3CCOCC3)oc12 [AZD8186] + CC(=O)c1c(C)c2cnc(Nc3ccc(N4CCNCC4)cn3)nc2n(C2CCCC2)c1=O [Palbociclib] (first compound max 10 µM, 7x7, partner max 10 µM) | 0.999 | 0.394 | 0.352 | 0.594 | 0.589 | 0.509 | 0.586 | 0.411 | 0.378 | 0.651 | 0.447 | 0.514 | 0.564 | 0.434 | 0.558 | 0.536 | 0.53 | 0.755 | 0.387 | 0.353
